# Data: the supplement of paper PMC11208160
# Experiment: recombinant UMI read abundance after kanamycin selection (control-corrected) (log10(CPM+1)); higher = more efficient recombination; extreme values may be limits of the assay; sequences stand for … in AGTGCAGAGAAAATCGGCCAGTTTTCTCTGCCTGCAGTCCGCATGCCGTGGGACCCCTTGGGTTCTAACCTGTTGCCTAGATTTATGCAGCGGACTGCCTTTCTCCCAAAGTGATAAACCGG…AGGTTGGTTTCACT; site = the 11-nt donor
# Procedure: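 Pooled E. coli donor-specificity screen for the IS621 bridge recombinase. Each library member carries a reprogrammed 11-nt donor and a full-length LE bridge RNA expressed in cis from the natural promoter, with a paired donor-binding loop (8-nt LDG + 4-nt RDG) and a target-binding loop fixed to T5. It is co-electroporated with a T5 target plasmid; recombinase is induced with 0.07 mM IPTG and recombinants are selected on kanamycin. UMIs are counted as CPM, averaged over two biological replicates and corrected by the unselected control. Molecule = full bridge RNA written as DNA, built from the T5 scaffold: LDG = donor specificity nt 1-8, RDG = reverse complement of nt 8-11.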
# 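Also: IS621 bridge recombinase in Escherichia coli cells against a fixed T5 target plasmid.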
row,Sequence,recombinant UMI read abundance (log10)
1,ACTAAAACATGGACCGGTTTTCCCGGTAATCCGTATTTGAG (site ACTACAACTCT),0.0124
2,ACTAAAACATGGACCGGTTTTCCCGGTAATCCGTATTTGAG (site ACTAGAACTCT),0.267
3,ACTAAAACATGGACCGGTTTTCCCGGTAATCCGTATTTGAG (site ACTATAACTCT),0.376
4,ACTAAAGCATGGACCGGTTTTCCCGGTAATCCGTATTTGAT (site ACTAAAGCTAT),2.22
5,ACTAAAGCATGGACCGGTTTTCCCGGTAATCCGTATTTGAT (site CCTAAAGCTAT),0
6,ACTAAAGCATGGACCGGTTTTCCCGGTAATCCGTATTTGAT (site GCTAAAGCTAT),0.0031
7,ACTAAAGCATGGACCGGTTTTCCCGGTAATCCGTATTTGAT (site TCTAAAGCTAT),0.855
8,ACTACACCATGGACCGGTTTTCCCGGTAATCCGTATTTGGT (site ACTACACCTAC),0
9,ACTACCTCATGGACCGGTTTTCCCGGTAATCCGTATTTGTT (site ACTACCTCTAA),1.19
10,ACTACTGCATGGACCGGTTTTCCCGGTAATCCGTATTTGCC (site ACTACTGCTGG),1.54
11,ACTACTGCATGGACCGGTTTTCCCGGTAATCCGTATTTGCC (site CCTACTGCTGG),1.45
12,ACTACTGCATGGACCGGTTTTCCCGGTAATCCGTATTTGCC (site GCTACTGCTGG),0.946
13,ACTACTGCATGGACCGGTTTTCCCGGTAATCCGTATTTGCC (site TCTACTGCTGG),1.03
14,ACTAGACCATGGACCGGTTTTCCCGGTAATCCGTATTTGAG (site ACTAGAACTCT),0.103
15,ACTAGACCATGGACCGGTTTTCCCGGTAATCCGTATTTGAG (site ACTAGACCTCT),0.0176
16,ACTAGACCATGGACCGGTTTTCCCGGTAATCCGTATTTGAG (site ACTAGAGCTCT),0.0203
17,ACTAGACCATGGACCGGTTTTCCCGGTAATCCGTATTTGAG (site ACTAGATCTCT),1.02
18,ACTAGAGCATGGACCGGTTTTCCCGGTAATCCGTATTTGGT (site ACTAGAGCTAC),1.72
19,ACTAGAGCATGGACCGGTTTTCCCGGTAATCCGTATTTGGT (site ACTAGCGCTAC),0.398
20,ACTAGAGCATGGACCGGTTTTCCCGGTAATCCGTATTTGGT (site ACTAGGGCTAC),0.647
21,ACTAGAGCATGGACCGGTTTTCCCGGTAATCCGTATTTGGT (site ACTAGTGCTAC),0.4
22,ACTAGTACATGGACCGGTTTTCCCGGTAATCCGTATTTGAC (site ACTAGTACTGT),2.14

row,Sequence,recombinant UMI read abundance (log10)
1,ACTAGTCCATGGACCGGTTTTCCCGGTAATCCGTATTTGGT (site ACTAGTACTAC),0.0112
2,ACTAGTCCATGGACCGGTTTTCCCGGTAATCCGTATTTGGT (site ACTAGTCCTAC),0.00473
3,ACTAGTCCATGGACCGGTTTTCCCGGTAATCCGTATTTGGT (site ACTAGTGCTAC),0.00689
4,ACTAGTCCATGGACCGGTTTTCCCGGTAATCCGTATTTGGT (site ACTAGTTCTAC),0.244
5,ACTAGTGCATGGACCGGTTTTCCCGGTAATCCGTATTTGGC (site ACTAGTGCTAC),0.0845
6,ACTAGTGCATGGACCGGTTTTCCCGGTAATCCGTATTTGGC (site ACTAGTGCTCC),0.0166
7,ACTAGTGCATGGACCGGTTTTCCCGGTAATCCGTATTTGGC (site ACTAGTGCTGC),2.6
8,ACTAGTGCATGGACCGGTTTTCCCGGTAATCCGTATTTGGC (site ACTAGTGCTTC),0.32
9,ACTAGTGCATGGACCGGTTTTCCCGGTAATCCGTATTTGGT (site AATAGTGCTAC),0.282
10,ACTAGTGCATGGACCGGTTTTCCCGGTAATCCGTATTTGGT (site ACAAGTGCTAC),0.762
11,ACTAGTGCATGGACCGGTTTTCCCGGTAATCCGTATTTGGT (site ACCAGTGCTAC),1.02
12,ACTAGTGCATGGACCGGTTTTCCCGGTAATCCGTATTTGGT (site ACGAGTGCTAC),0.586
13,ACTAGTGCATGGACCGGTTTTCCCGGTAATCCGTATTTGGT (site ACTAATGCTAC),0.409
14,ACTAGTGCATGGACCGGTTTTCCCGGTAATCCGTATTTGGT (site ACTACTGCTAC),0.285
15,ACTAGTGCATGGACCGGTTTTCCCGGTAATCCGTATTTGGT (site ACTAGAGCTAC),1.08
16,ACTAGTGCATGGACCGGTTTTCCCGGTAATCCGTATTTGGT (site ACTAGCGCTAC),0.00815
17,ACTAGTGCATGGACCGGTTTTCCCGGTAATCCGTATTTGGT (site ACTAGGGCTAC),0.0226
18,ACTAGTGCATGGACCGGTTTTCCCGGTAATCCGTATTTGGT (site ACTAGTACTAC),0.998
19,ACTAGTGCATGGACCGGTTTTCCCGGTAATCCGTATTTGGT (site ACTAGTCCTAC),0.0182
20,ACTAGTGCATGGACCGGTTTTCCCGGTAATCCGTATTTGGT (site ACTAGTGCTAA),0.00318
21,ACTAGTGCATGGACCGGTTTTCCCGGTAATCCGTATTTGGT (site ACTAGTGCTAC),1.55
22,ACTAGTGCATGGACCGGTTTTCCCGGTAATCCGTATTTGGT (site ACTAGTGCTAG),0.699

row,Sequence,recombinant UMI read abundance (log10)
1,ACTAGTGCATGGACCGGTTTTCCCGGTAATCCGTATTTGGT (site ACTAGTGCTAT),1.2
2,ACTAGTGCATGGACCGGTTTTCCCGGTAATCCGTATTTGGT (site ACTAGTGCTCC),0.0239
3,ACTAGTGCATGGACCGGTTTTCCCGGTAATCCGTATTTGGT (site ACTAGTGCTGC),0
4,ACTAGTGCATGGACCGGTTTTCCCGGTAATCCGTATTTGGT (site ACTAGTGCTTC),0.0165
5,ACTAGTGCATGGACCGGTTTTCCCGGTAATCCGTATTTGGT (site ACTAGTTCTAC),0.264
6,ACTAGTGCATGGACCGGTTTTCCCGGTAATCCGTATTTGGT (site ACTATTGCTAC),0.975
7,ACTAGTGCATGGACCGGTTTTCCCGGTAATCCGTATTTGGT (site ACTCGTGCTAC),0.265
8,ACTAGTGCATGGACCGGTTTTCCCGGTAATCCGTATTTGGT (site ACTGGTGCTAC),0.583
9,ACTAGTGCATGGACCGGTTTTCCCGGTAATCCGTATTTGGT (site ACTTGTGCTAC),0.26
10,ACTAGTGCATGGACCGGTTTTCCCGGTAATCCGTATTTGGT (site AGTAGTGCTAC),0.424
11,ACTAGTGCATGGACCGGTTTTCCCGGTAATCCGTATTTGGT (site ATTAGTGCTAC),1.01
12,ACTAGTGCATGGACCGGTTTTCCCGGTAATCCGTATTTGGT (site CCTAGTGCTAC),0.821
13,ACTAGTGCATGGACCGGTTTTCCCGGTAATCCGTATTTGGT (site GCTAGTGCTAC),0.338
14,ACTAGTGCATGGACCGGTTTTCCCGGTAATCCGTATTTGGT (site TCTAGTGCTAC),0.86
15,ACTAGTTCATGGACCGGTTTTCCCGGTAATCCGTATTTGGT (site ACTAGTACTAC),0.293
16,ACTAGTTCATGGACCGGTTTTCCCGGTAATCCGTATTTGGT (site ACTAGTCCTAC),0.0335
17,ACTAGTTCATGGACCGGTTTTCCCGGTAATCCGTATTTGGT (site ACTAGTGCTAC),0.00523
18,ACTAGTTCATGGACCGGTTTTCCCGGTAATCCGTATTTGGT (site ACTAGTTCTAC),1.89
19,ACTCCAGCATGGACCGGTTTTCCCGGTAATCCGTATTTGCG (site ACTCCAGCTCG),0.0064
20,ACTCCTGCATGGACCGGTTTTCCCGGTAATCCGTATTTGAC (site ACTCCTGCTGT),0.671
21,ACTCGAACATGGACCGGTTTTCCCGGTAATCCGTATTTGAG (site ACTAGAACTCT),0.00419
